# In patent US20140315850A1, “2',3'-Dideoxy-2'-alpha-Fluoro-2'-beta-C-Methylnucleosides and Prodrugs Thereof” (Nanjing Molecular Research, Inc., priority 2011, published 2014):
# Tested on: HCV subgenomic genotype 1b replicon
# Test: cell-based HCV replicon assay (luciferase reporter)
# Set-up: species or system hepatitis C virus (HCV)
# Settings: Hepatitis C virus; Huh-7 cells, genotype 1b replicon luc-ubi-neo, 48 h incubation, luciferase activity; read-out: EC50 (concentration of drug inhibiting HCV by 50%)
# Protocol: (§1) The anti-HCV activity and cytotoxicity of compounds disclosed herein were evaluated following patent method (WO/2007/027248).
# (§2) The anti-HCV activity and toxicity of the exemplary compounds can be tested in two biological assays—a cell-based HCV replicon assay and cytotoxicity assay (WO 2007/027248).
# A human hepatoma cell line (Huh-7) containing replicating HCV subgenomic genotype 1b replicon with a luciferase reporter gene (luc-ubi-neo) was used to evaluate anti-HCV activity of the compounds. In this assay, the level of luciferase signal correlates with the viral RNA replication directly. The HCV replicon-reporter cell line (NK/luc-ubi-neo) was cultured in DMEM medium supplemented with 10% fetal bovine serum and 0.5 mg/ml Geneticin (G418). Cells were maintained in a subconfluent state to ensure high levels of HCV replicon RNA synthesis.
# To evaluate the antiviral activity of compounds, serial dilutions were prepared with concentrations ranging from 0.14 to 300 μM. Diluted compounds were transferred to a 96-well plate followed by the addition of replicon cells (6000 cells per well). Cells were incubated with the compounds for 48 h after which luciferase activity was measured. Reduction of luciferase signal reflected the decrease of HCV replicon RNA in the treated cells and used to determine the EC50 value (concentration which yielded a 50% reduction in luciferase activity).
row,SMILES,EC50 [nM]
1,COc1nc(N)nc2c1ncn2C1OC(CO)C[C@@]1(C)F (some centres unmarked) [Compound 11],> 100000
2,COc1nc(N)nc2c1ncn2C1OC(COP(=O)(NCc2ccccc2)OCc2ccccc2C)C[C@@]1(C)F (some centres unmarked) [Compound 17],< 1000
3,COC(=O)[C@H](C)NP(=O)(OCC1C[C@@](C)(F)C(n2cnc3c(OC)nc(N)nc32)O1)Oc1ccccc1 (some centres unmarked) [Compound 18],< 1000
4,COc1nc(N)nc2c1ncn2C1OC(CO[P@@](=O)(N[C@@H](C)C(=O)OC2CCCC2)Oc2ccccc2)C[C@@]1(C)F (some centres unmarked) [Compound 25],580

# Same assay, conditions: replicon assay, genotype 1b
row,SMILES,anti-HCV activity (in words)
1,COc1nc(N)nc2c1ncn2C1OC(COP(=O)(NCc2ccccc2)OCc2ccccc2C)C[C@@]1(C)F (some centres unmarked) [Compound 17],potent anti-HCV activity
2,COC(=O)[C@H](C)NP(=O)(OCC1C[C@@](C)(F)C(n2cnc3c(OC)nc(N)nc32)O1)Oc1ccccc1 (some centres unmarked) [Compound 18],potent anti-HCV activity
3,COc1nc(N)nc2c1ncn2C1OC(CO[P@@](=O)(N[C@@H](C)C(=O)OC2CCCC2)Oc2ccccc2)C[C@@]1(C)F (some centres unmarked) [Compound 25],potent anti-HCV activity

# Tested on: not listed separately
# Test: Cytotoxicity assay (LTR-luc luciferase reporter)
# Assay type: cell-based, human
# Settings: human; Huh-7 LTR-luc cells, luciferase activity; read-out: CC50 (concentration of drug inhibiting cellular growth by 50%)
# Protocol: as §1, §2
# (§3) II. Cytotoxicity Assay A Huh-7 cell line carrying a luciferase reporter gene (driven by a HIV LTR promoter) stably integrated into the chromosome was used to analyze the cytotoxic effect of the selected compounds. This cell line (LTR-luc) was maintained in DMEM medium with 10% FBS. Design of the cytotoxicity assay was similar to that of the HCV replicon assay. Reduction of luciferase activity in the treated cells correlated with the cytotoxic effect of the test compound and was used to calculate the CC50 value (concentration that inhibited cell growth by 50%).
row,SMILES,CC50 [µM]
1,COc1nc(N)nc2c1ncn2C1OC(CO)C[C@@]1(C)F (some centres unmarked) [Compound 11],> 100
2,COc1nc(N)nc2c1ncn2C1OC(COP(=O)(NCc2ccccc2)OCc2ccccc2C)C[C@@]1(C)F (some centres unmarked) [Compound 17],52.2
3,COC(=O)[C@H](C)NP(=O)(OCC1C[C@@](C)(F)C(n2cnc3c(OC)nc(N)nc32)O1)Oc1ccccc1 (some centres unmarked) [Compound 18],> 100
4,COc1nc(N)nc2c1ncn2C1OC(CO[P@@](=O)(N[C@@H](C)C(=O)OC2CCCC2)Oc2ccccc2)C[C@@]1(C)F (some centres unmarked) [Compound 25],> 100

# Tested on: Huh-7 cell line (LTR-luc)
# Test: Cytotoxicity assay (LTR-luc luciferase reporter)
# Assay type: cell-based, human
# Settings: in vitro
# Protocol: as §1, §2, §3
row,SMILES,cytotoxicity (in words)
1,COc1nc(N)nc2c1ncn2C1OC(COP(=O)(NCc2ccccc2)OCc2ccccc2C)C[C@@]1(C)F (some centres unmarked) [Compound 17],without significant cytotoxicity
2,COC(=O)[C@H](C)NP(=O)(OCC1C[C@@](C)(F)C(n2cnc3c(OC)nc(N)nc32)O1)Oc1ccccc1 (some centres unmarked) [Compound 18],without significant cytotoxicity
3,COc1nc(N)nc2c1ncn2C1OC(CO[P@@](=O)(N[C@@H](C)C(=O)OC2CCCC2)Oc2ccccc2)C[C@@]1(C)F (some centres unmarked) [Compound 25],without significant cytotoxicity
